Here are results for 30 compounds from PubChem BioAssay (NCI).

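All cell lines were grown in 96-well plates and treated with compound for 48 hours. TGI: total growth inhibition.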

Holding throughout (experiment): inhibition of tumour cell growth, NCI panel, 48 h
Assay [1] relates to OVCAR-5 ovarian.
The subject of assay [2] is CAKI-1 renal.
The subject of assay [3] is U251 CNS.
Assay [4] has as its system ACHN renal.
Assay [5] deals with HCC-2998 colon.
Assay [6] deals with RPMI-8226 leukemia.
The test system of assay [7] is UACC-257 melanoma.
Assay [8] concerns NCI-H23 lung.
For assay [9], the system named is SN12C renal.
The test system of assay [10] is UO-31 renal.

Turning to `CCOC(=O)C1CCCCN1C(=O)Cc1c[nH]c2ccccc12` (centres undefined), the TGI in assay [1] was over 100 µM; in assay [2] it was over 100 µM; in assay [3] it was over 100 µM; in assay [4], over 100 µM; in assay [5], over 100 µM; in [6] it was 64.7 µM. For the same compound, the TGI in [7], in assay [8] and in [9] was over 100 µM each time.

As for `CC1(C)CC(=O)c2c(nc3c4c([nH]c(-c5ccc(Br)cc5)c24)CC(C)(C)C3)C1`, the TGI in assay [1], in [2], in [3], in assay [10], in [4] and in assay [5] was over 100 µM throughout. Also, the TGI in [7], in [8] and in [9] was over 100 µM in each case.

Take `C[N+](C)(C)c1ncnc2c1ncn2C1CCCO1` (centres undefined): the TGI in assay [1], in assay [3], in assay [10], in assay [4], in assay [5] and in assay [6] was over 100 µM each time. Also, the TGI in assay [7], in assay [8] and in assay [9] was over 100 µM in each case.

As to `O=c1[nH]c(Nc2nc3ccccc3[nH]2)nc(O)c1Cc1ccccc1`, the TGI in assay [2], in [3], in assay [10], in assay [4], in assay [6] and in assay [7] was over 100 µM in each case. In addition, the TGI in assay [8] and in assay [9] was over 100 µM each time.

For `COc1ccc(NC(=O)C(=O)/C=C(\O)c2ccccc2)cc1`, the TGI in assay [2], in [5], in assay [6], in assay [7], in assay [8] and in assay [9] was over 10 µM in each case.

Regarding `C=CCOc1ccc(C2C(C(=O)OC)C(=O)CC(O)(c3ccccc3)C2C(=O)OC)cc1OC` (centres undefined), the TGI is over 100 µM in assay [1]; over 100 µM in [2]; over 100 µM in [3]; 61.8 µM in assay [10]; over 100 µM in assay [4]; over 100 µM in assay [5]. The TGI in assay [7], in assay [8] and in assay [9] was over 100 µM in each case.

`OC(c1cccnc1Cl)c1nc2ccccc2c2ccnc(Cl)c12` (centres undefined): the TGI in assay [1] was over 100 µM; in [2] it was over 100 µM; in assay [3] it was over 100 µM; in assay [10], over 100 µM; in assay [4], over 100 µM; in assay [6], 8.57 µM. For the same compound, the TGI in assay [7] was over 100 µM; in [8], over 100 µM; in [9] it was 45.8 µM.

As for `COc1ccc(C(=O)/C=C/c2ccc(OCC#N)cc2)cc1`, the TGI in assay [1] is over 100 µM; in [2], 42 µM; in [3] it was 32.5 µM; in [10], 30.6 µM; in [4] it was over 100 µM; in assay [5], 31.8 µM. In addition, the results for the TGI in assay [7], in assay [8] and in assay [9] were over 100 µM, 49.6 µM and 39.2 µM, respectively.

As for `O=C1CCCC/C1=C\c1ccc(Cl)c(Cl)c1`, the TGI is 37.6 µM in assay [2]; 30.6 µM in assay [3]; 34 µM in assay [10]; 33.5 µM in assay [4]; 42.7 µM in [5]; 71.3 µM in assay [8]. The TGI in assay [9] was 31 µM.

`C=C1CC[C@@H](C)[C@](C)(CCc2ccoc2)C/C=C\C=C/1C(=O)O`: the TGI in assay [1], in assay [2], in assay [3], in assay [10], in [4] and in assay [7] was over 100 µM throughout. The TGI in assay [8] and in [9] was over 100 µM in each case.

For the compound `CSc1c(C#N)c(N)n(-c2ccc(Cl)cc2)c(=O)c1C#N`, the TGI in assay [1], in [2], in [3], in assay [10], in assay [5] and in [6] was over 100 µM throughout. The TGI in assay [7], in assay [8] and in assay [9] was over 100 µM throughout.

Consider `COC(=O)Cc1c(-c2c(CC(=O)OC)c3ccccc3n2C2OC(COC(C)=O)C(OC(C)=O)C(OC(C)=O)C2OC(C)=O)[nH]c2ccccc12` (centres undefined), for which the TGI in assay [1], in [2], in assay [3], in assay [10], in assay [5] and in assay [6] was over 100 µM each time. The TGI in [7], in assay [8] and in [9] was over 100 µM in each case.

For `CO/N=C1/c2sccc2[C@H](NC(=O)C(Cc2ccccc2)NC(=O)OC(C)(C)C)[C@@H]1O` (some centres undefined), the TGI in assay [1], in [2], in assay [3], in [10], in assay [5] and in [7] was over 100 µM each time. Further, the TGI in assay [8] and in [9] was over 100 µM in each case.

Regarding `CC1CC(C#N)=C2NCCN2C1=O` (centres undefined), the TGI in [2], in assay [3], in assay [10], in assay [5], in assay [6] and in assay [7] was over 100 µM throughout. The TGI in [8] and in assay [9] was over 100 µM in each case.

Regarding `Cc1cc2c(cc1C)[n+](=O)c(C(=O)c1ccccc1)c(C(F)(F)F)n2[O-]`, the TGI was 10.2 µM in [1]; 2.42 µM in assay [2]; 16.4 µM in assay [3]; 4.66 µM in assay [10]; 8.29 µM in assay [4]; 3.6 µM in [6]. For the same compound, the TGI in assay [7] was 14.6 µM; in assay [8], 6.78 µM; in [9], 10.2 µM.

`CCCCNc1nc(NC2OCC(OC(C)=O)C(OC(C)=O)C2OC(C)=O)c(N=O)c(=O)n1C` (centres undefined): the TGI in [1], in [2], in assay [3], in [4], in assay [5] and in assay [6] was over 10 µM throughout. The TGI in assay [7], in assay [8] and in assay [9] was over 10 µM in each case.

With `O=[N+]([O-])c1ccc(C(O)(C#CCN2CCCC2)c2ccccc2)cc1` (centres undefined), the TGI was over 100 µM in assay [1]; over 100 µM in assay [3]; over 100 µM in assay [10]; over 100 µM in assay [4]; 35.8 µM in [5]; 61.9 µM in [6]. For the same compound, the results for the TGI in assay [7], in assay [8] and in assay [9] were 58.7 µM, over 100 µM and over 100 µM, respectively.

Consider `COc1cccc(C2c3cc4c(cc3OC3COC(=O)C32)OCO4)c1OC` (centres undefined), for which the TGI in assay [1], in assay [2], in [10], in assay [4], in assay [5] and in assay [7] was over 100 µM each time. The TGI in assay [9] was over 100 µM.

In the case of `CC[C@@]1(O)C(=O)OCc2c1cc1n(c2=O)Cc2c-1nc1ccccc1c2/C=N\NC(=O)C(N)CCSC` (some centres undefined), the TGI was over 23.7 µM in [1]; 1.17 µM in [3]; 0.277 µM in [10]; under 0.0506 µM in assay [4]; 5.26 µM in assay [5]; 4.03 µM in assay [6]. Besides, the TGI in [7] worked out at 2.45 µM; in assay [8], 0.0526 µM; in assay [9], 0.925 µM.

With `CC(C)(C)NC(=O)CCC1C(C(=O)NC(C)(C)C)C2(Cl)C(Cl)=C(Cl)C1(Cl)C2(Cl)Cl` (centres undefined), the TGI in assay [1], in assay [3], in assay [10], in assay [4], in [5] and in [6] was over 100 µM each time. For the same compound, the TGI in assay [7], in assay [8] and in [9] was over 100 µM in each case.

Turning to `CCc1ccc2c(c1)N(CC(C)CN(C)C)c1ccccc1S2` (centres undefined), the TGI in assay [1] stood at 19.9 µM; in assay [2], 18.3 µM; in [3], 17.4 µM; in assay [10], 10.3 µM; in [4], 15.5 µM; in assay [6], 6.28 µM. Also, the TGI stood at 7.19 µM in [7], 21.8 µM in [8] and 19.5 µM in [9].

`O=C1c2ccccc2N2OC3(N4CCCC4)CCCCC3C12c1ccccc1` (centres undefined): the TGI in assay [3] is over 100 µM; in [10], over 100 µM; in assay [4], 43.8 µM; in assay [5], over 100 µM; in assay [6], over 100 µM; in assay [7], 45.6 µM. Besides, the TGI in assay [8] is 86 µM; in [9] it was 30.5 µM.

Regarding `O=C(O)c1cc(CCc2cc(O)ccc2O)ccc1O`, the TGI in assay [1], in [2], in assay [3], in assay [10], in assay [4] and in [6] was over 100 µM in each case. For the same compound, the TGI in assay [7], in [8] and in [9] was over 100 µM each time.

With `O=C(c1ccco1)N(C(=O)N1CCN(c2ccccc2)CC1)S(=O)(=O)c1ccccc1`, the TGI is over 100 µM in [1]; 57.8 µM in assay [2]; 72.2 µM in assay [3]; 53.6 µM in assay [10]; 62.7 µM in [4]; over 100 µM in assay [5]. The TGI in [7] is over 100 µM; in [8], 53.2 µM; in assay [9], 61.9 µM.

On to `CCN(CCN(CC)C(=O)Nc1ccccc1)C(=O)Nc1ccccc1`, for which the TGI in assay [1], in assay [3], in assay [10], in assay [4], in assay [5] and in assay [6] was over 100 µM in each case. For the same compound, the TGI in assay [7], in [8] and in assay [9] was over 100 µM throughout.

Turning to `COC(=O)C(=O)Cc1nc2ccccc2o1`, the TGI in assay [1], in [3], in [10], in assay [4], in assay [5] and in assay [7] was over 100 µM in each case. The TGI in assay [8] and in assay [9] was over 100 µM each time.

For `C=C(C)[C@@H]1CC[C@]2(C(=O)OC)CC[C@]3(C)[C@H](CC[C@@H]4[C@@]5(C)CC[C@H](O)C(C)(C)[C@@H]5CC[C@]43C)[C@@H]12`, the TGI in [1] is 55.4 µM; in [2], 39.6 µM; in assay [3], 35.8 µM; in assay [10], 49.1 µM; in assay [4] it was 32.9 µM; in assay [7], 38.3 µM. The results for the TGI in assay [8] and in assay [9] were over 100 µM and 35.1 µM, respectively.

For the compound `CCCn1c(=O)c(N2CCN(c3ccccc3)CC2)nc2sc3ccccc3c21`, the TGI in assay [1], in assay [2], in [3], in assay [10], in assay [4] and in [7] was over 100 µM in each case. The TGI in assay [8] and in assay [9] was over 100 µM throughout.

For `O=C1NC2CCCCCC2C12CCCCC2` (centres undefined), the TGI in assay [1], in assay [3], in [10], in assay [4], in assay [5] and in [7] was over 100 µM throughout. The TGI in assay [8] and in [9] was over 100 µM throughout.

On to `CCOC(=O)c1c[nH]c2ccc3c(c2c1=O)S(=O)(=O)CC3` (tested in a mixture with another compound), for which the TGI in assay [1], in assay [2], in assay [3], in assay [10], in assay [5] and in assay [6] was over 100 µM throughout. The TGI in [7], in assay [8] and in [9] was over 100 µM in each case.
